Reference: article PMC11148078, “Potent activity of polymyxin B is associated with long-lived super-stoichiometric accumulation mediated by weak-affinity binding to lipid A” (Nature Communications, 2024)
pKd: −log10 of the molar value. Read-outs that look alike come from different tables or passages of the source. Bridge positions count the residues as written; N and C are the ends. Square brackets hold non-standard residues; d marks the D form. Peptide text beside a SMILES is read from it. * marks the point of attachment. X1 = CC[C@H](C)CCCCC(=O)*; Dab = NCC[C@H](N)C(=O)O

Key:
[1] = system: E. coli cells, OMVs, and LPS; assay: SPR apparent association rate averaged over cells, OMVs and LPS; assay type: binding; conditions: averaged for cells
Experimental: OMV-coated and whole cell-coated C1 chips were prepared as already described with the following changes and LPS-coated surfaces were prepared identically but with rough-LPS extracted from E. coli F583 (Rd mutant, Sigma #L6893). For LPS, cloudy colloid suspension (above its CMC, ~1 mg/ml) contains LPS micelles that were injected and captured. For all formats, sample buffer and running buffer were composed of Dulbecco’s phosphate-buffered salt solution containing 0.0005% tween-80 (Sigma), 1 mM calcium and 0.5 mM magnesium (Fisher Scientific), pH 7.4. Analysis and compartment temperatures were both set to 37 °C. Freshly prepared OMV-coated or whole cell-coated sensing surfaces were employed for each injection of polymyxin B while LPS-coated sensing surfaces could be fully regenerated by injecting 50 mM CHAPS. Reversibly bound PMBN could be reinjected over all surfaces without requiring regeneration as it fully dissociated within a few minutes.
Fresh sensing surfaces coated with whole cells and OMVs were prepared and 325 nM polymyxin B was injected at […] for 120 s over both. This injection was repeated after a long delay, and without regeneration, in order to allow free sites to become available thereby resulting in two polymyxin B binding curves for each sensing surface (Fig. 3E, F). […]

wt-OMVs = assay: SPR chaser analysis (residence time), wt-OMVs; assay type: binding, E. coli; conditions: for t1/2: n≥3, (SD)
Experimental: The off-rate of the tightly bound fraction was estimated using a chaser analysis, where OMVs were pre-saturated with polymyxin B and then re-saturated after an extended time interval (Supplementary Information Fig. S11A). […] A t1/2 of >6 h was determined for polymyxin B binding to OMVs at both 25 and 37 °C (SI Table S3). The t1/2 of brevicidine, also measured by chaser analysis, was approximately 1 h on both wt-OMVs and polymyxin-resistant-OMVs (SI Table S3).
Binding and kinetic analysis of SPR-OMV assays […]
To determine the residence time of the test compound with OMVs, the ‘chaser method’ was used because it accounts for drift that can occur in the system over long incubation times 13. OMVs were loaded onto the chip as described above then 5 µM polymyxin B was injected using the ‘low-sample consumption’ setting for 300 sec ([…] flow rate), followed by a 240 sec dissociation time. A second dose of 5 µM polymyxin B was then injected for 60 sec ([…]) to assure saturation followed by a 2 h dissociation time prior to the ‘chaser’, a 60 sec pulse of 5 µM polymyxin B. The RUs of associated polymyxin B were determined 120 sec after the start of the dissociation. The change in RUs from before dosing to after the second dose, and the change in RUs from prior to the ‘chaser’ dose and 120 sec after the start of its dissociation were used to calculate the fraction occupancy of the material and the residence time/half-life as described 13. […]
PMBN) to LPS for 20 min. […]
20 sec with a Solarus plasma cleaner (Gatan). Grids were blotted and plunge-frozen by Vitrobot (ThermoFisher Scientific, Waltham, MA) at 4°C, 100% relative humidity, blot force 7, and a 3 sec […]
TEM data collection was performed using a Titan Krios G3i (ThermoFisher Scientific, Waltham, MA) operating at 300 kV equipped with a BioQuantum energy filter and a K3 Summit direct electron detector operating at a nominal magnification of 105,000x (0.838 Å/pixel), an energy slit width of 20 eV, defocus range -1 to -3 μm, 3-sec exposure time, 60 frames per movie, a total electron fluence of ~64 e/Å2. Microscope and camera automation was accomplished by SerialEM14, and image processing (motion correction & CTF estimation) was performed using […]
Standard cryo-EM image processing software and methods were incompatible with the vesicle images, so a blinded visual scoring method for image analysis was used. Approximately 50 images from each sample and treatment condition that each contained at least one OMV (pooled in a single folder and blinded) were scored for number of vesicles touching (0-10+), and if the vesicle membranes appeared disrupted or abnormal. Sampling was not completely random as images of vesicles could not be obtained from areas with significant clumping. Images shown in […]

bacterial cells = conditions: different methods, ref [27]–[31], cited from earlier work
Experimental: Investigations into the binding of polymyxins to bacterial cells have generally relied on whole-cell and plate-based equilibrium approaches. Different methods have produced equilibrium binding constants (KDs) for polymyxin B ranging from 400 nM up to greater than 100 µM[27]–[31], which are, in some cases, multiple orders-of-magnitude higher than the reported cellular potency of these antibiotics. However, these approaches are likely complicated by the rapid kill-kinetics of polymyxins, non-specific binding of polymyxins to plate surfaces, assumptions of a simple binding mechanism, an inoculum ...

Which “ka, apparent association rate constant” value [1] does the source give for `CC[C@H](C)CCCCC(=O)N[C@@H](CCN)C(=O)N[C@H](C(=O)N[C@@H](CCN)C(=O)N[C@H]1CCNC(=O)[C@H]([C@@H](C)O)NC(=O)[C@H](CCN)NC(=O)[C@H](CCN)NC(=O)[C@H](CC(C)C)NC(=O)[C@@H](Cc2ccccc2)NC(=O)[C@H](CCN)NC1=O)[C@@H](C)O` [Polymyxin B] (X1-[Dab]T[Dab][Dab][Dab][dF]L[Dab][Dab]T; lactam 4-C (inferred); N-terminus assumed) here?
The value was 2.1 (±0.78) × 10^5 M^−1 s^−1.

And the “t1/2 of tightly bound state” value (wt-OMVs; 25 and 37 °C)?
The value was over 6 h.

What about the t1/2 (wt-OMVs; 25 °C) of the same compound?
Its t1/2 is 6.86 (2.11) h.

And the t1/2 (wt-OMVs; 37 °C)?
The t1/2 was 7.27 (2.15) h.

And the pKd (bacterial cells; read-out: equilibrium binding constant KD, lower end)?
The pKd was 6.40.

What about the pKd (bacterial cells; read-out: equilibrium binding constant KD, upper end) of the same compound?
Its pKd is under 4.00.
